According to patent US5527801A, “Ameliorant for blood lipid metabolism” (Dainippon Pharmaceutical Co., Ltd., priority 1991, dated 1996):
Like-named read-outs stand apart in the source and are kept apart here.

What was measured:
[1] = tested on: cholesterol amount in aortas; experiment: Cholesterol amount in the aorta of rabbits fed high fat feed (atherosclerosis); format: in vivo, male white Japanese rabbits; conditions: 9 weeks; for Cholesterol amount in aortas: high fat feed, oral once a day: maleate of Compound A 30, diltiazem 50, prazosin 3 mg/kg/day; for Cholesterol amount in the aorta, effect in words: vs High fat feed + Vehicle
Description: (§1) In this experiment, male white Japanese rabbits (5 to 7 rabbits/group) were used. The high fat feed was prepared by adding 1% cholesterol and 6% coconut oil to the solid feed (Oriental Yeast Co., Ltd., RC-4).
(§2) Separately, in the normal feed group, each rabbit was given normal solid feed (RC-4) (100 g/day) and a vehicle (tragacanth solution) orally.
(§3) Nine weeks after the beginning of administration, each rabbit was killed with bleeding under pentobarbital-anesthesia, and the aorta was taken out. The cholesterol amount in the aorta was determined, and the lipid deposition at the aortic inner wall was stained and the area of the stained parts was measured.

[2] = tested on: free cholesterol in plasma; experiment: Free cholesterol in plasma of rabbits fed high fat feed; format: in vivo, male white Japanese rabbits; conditions: for Free cholesterol concentration in plasma: ± standard error; for Free cholesterol concentration, effect in words: vs High fat feed + Vehicle, up to 9 weeks
Description: as §1, §2

[3] = tested on: total cholesterol in plasma; experiment: Total cholesterol in plasma of rabbits fed high fat feed; format: in vivo, male white Japanese rabbits; conditions: for Total cholesterol concentration in plasma: ± standard error; for Total cholesterol concentration, effect in words: vs High fat feed + Vehicle, up to 9 weeks
Description: as §1, §2

[4] = tested on: lipid deposition at aortic inner wall; experiment: Area of lipid deposition at aortic inner wall of rabbits fed high fat feed (atherosclerosis); format: in vivo, male white Japanese rabbits; conditions: 9 weeks; for Area of lipid deposition at aortic inner wall: high fat feed, percentage of whole area of aortic inner wall, oral once a day: maleate of Compound A 30, diltiazem 50, prazosin 3 mg/kg/day; for Area of lipid deposition at the aortic inner wall, effect in words: vs High fat feed + Vehicle
Description: as §1, §2, §3

α1-receptor = conditions: Jpn. J. Pharmacol., 52 (suppl. 1), 212 (1990); cited from earlier work
phospholipid in plasma = experiment: Phospholipid in plasma of rabbits fed high fat feed; format: in vivo, male white Japanese rabbits; conditions: for Phospholipid concentration in plasma: ± standard error; for Phospholipid concentration, effect in words: vs High fat feed + Vehicle, up to 9 weeks
Description: as §1, §2

[5] = JP Kokoku 58341/1991 (U.S. Pat. No. 4,749,703); cited from earlier work
atherosclerosis = conditions: cited from earlier work
[6] = Hypotensive activity at the dosages of the experiment; format: in vivo; conditions: at 30 (maleate of Compound A), 50 (diltiazem), 3 (prazosin) mg/kg/day, oral
[7] = Acute toxicity (LD50), oral, mice; conditions: mouse, in vivo
beagles = conditions: dog, in vivo
rats = conditions: rat, in vivo
blood lipid = conditions: cited from earlier work
[8] = week 0, high fat feed, before treatment
[9] = week 6, high fat feed, oral once a day: maleate of Compound A 30, diltiazem 50, prazosin 3 mg/kg/day
[10] = week 8, high fat feed, oral once a day: maleate of Compound A 30, diltiazem 50, prazosin 3 mg/kg/day
[11] = week 9, high fat feed, oral once a day: maleate of Compound A 30, diltiazem 50, prazosin 3 mg/kg/day

| Compound | Cholesterol amount in aortas [1] | Free cholesterol concentration in plasma [2, 8] | Free cholesterol concentration in plasma [2, 9] | Free cholesterol concentration in plasma [2, 10] | Free cholesterol concentration in plasma [2, 11] | Total cholesterol concentration in plasma [3, 8] | Total cholesterol concentration in plasma [3, 9] | Total cholesterol concentration in plasma [3, 10] | Total cholesterol concentration in plasma [3, 11] | Area of lipid deposition at aortic inner wall [4] | Phospholipid concentration in plasma (phospholipid in plasma; [8]) | Phospholipid concentration in plasma (phospholipid in plasma; [9]) | Phospholipid concentration in plasma (phospholipid in plasma; [10]) | Phospholipid concentration in plasma (phospholipid in plasma; [11]) | Cholesterol amount in the aorta, effect in words [1] | Free cholesterol concentration, effect in words [2] | Total cholesterol concentration, effect in words [3] | hypotensive activity [6] | Area of lipid deposition at the aortic inner wall, effect in words [4] | Phospholipid concentration, effect in words (phospholipid in plasma) | also measured |
| --- | --- | --- | --- | --- | --- | --- | --- | --- | --- | --- | --- | --- | --- | --- | --- | --- | --- | --- | --- | --- | --- |
| O=C(CCCN1CCN(c2ccc(F)cc2)CC1)NC1c2ccccc2CSc2ccccc21 (stereo not shown) [Compound A] | 234.4 ± 39.4 mg/kg of protein | 346 ± 34 mg/dL | 503 ± 43 mg/dL | 330 ± 56 mg/dL | 306 mg/dL | 1161 ± 110 mg/dL | 1595 ± 136 mg/dL | 1074 ± 162 mg/dL | 1070 mg/dL | 35.2% | 452 ± 42 mg/dL | 678 ± 70 mg/dL | 529 ± 66 mg/dL | 489 mg/dL | – | – | – | – | – | – | α1-receptor blocking activity (α1-receptor): have α1 -receptor blocking activity; calcium antagonistic activity [5]: potent calcium antagonistic activity |
| COc1ccc([C@@H]2Sc3ccccc3N(CCN(C)C)C(=O)[C@@H]2OC(C)=O)cc1 [diltiazem] | 509.3 ± 240.1 mg/kg of protein | 318 ± 57 mg/dL | 660 ± 42 mg/dL | 673 ± 96 mg/dL | 486 mg/dL | 1127 ± 202 mg/dL | 2297 ± 127 mg/dL | 2106 ± 293 mg/dL | 1626 mg/dL | 45.2% | 454 ± 72 mg/dL | 931 ± 50 mg/dL | 825 ± 116 mg/dL | 718 mg/dL | not decreased at all | no decrease | no decrease | show hypotensive activity | not decreased at all | no decrease | atherosclerosis inhibitory activity (atherosclerosis; Atherosclerosis, 51, 343-344 (1984)): no inhibitory activity; atherosclerosis inhibitory activity (atherosclerosis; rabbits, Lab. Invest. 49, 154-158 (1983)): shows the atherosclerosis inhibitory activity |
| O=C(CCCN1CCN(c2ccc(F)cc2)CC1)NC1c2ccccc2CSc2ccccc21 (stereo not shown) [maleate of Compound A] | – | – | – | – | – | – | – | – | – | – | – | – | – | – | significantly decreased | significantly decreased from 6 weeks after the beginning of the administration | significantly decreased from 8 weeks after the beginning of administration | show hypotensive activity | also decreased | significantly decreased from 6 weeks after the beginning of the administration | LD50 [7]: > 500 mg/kg; toxicity by prolonged administration (beagles): no significant toxicity was observed; toxicity by prolonged administration (rats): no significant toxicity was observed |
| COc1cc2nc(N3CCN(C(=O)c4ccco4)CC3)nc(N)c2cc1OC [prazosin] | 372.8 ± 63.9 mg/kg of protein | 368 ± 22 mg/dL | 916 ± 69 mg/dL | 740 ± 96 mg/dL | 584 mg/dL | 1201 ± 45 mg/dL | 3048 ± 236 mg/dL | 2082 ± 194 mg/dL | 1999 mg/dL | 56.7% | 474 ± 22 mg/dL | 1240 ± 94 mg/dL | 937 ± 112 mg/dL | 803 mg/dL | not decreased at all | no decrease | no decrease | show hypotensive activity | not decreased at all | no decrease | α1-receptor blocking activity (α1-receptor): having α1 -receptor blocking activity; blood lipid decreasing activity (blood lipid; Prog. Medicine 3, 1517-1525 (1983)): no blood lipid decreasing activity; blood lipid decreasing activity (blood lipid; human being, Am. J. Medicine, 76 (suppl. 2A), 79-84 (1984)): shows blood lipid decreasing activity |
